Results: article PMC8268581, “Identification of 3,4-Dihydro-2H,6H-pyrimido[1,2-c][1,3]benzothiazin-6-imine Derivatives as Novel Selective Inhibitors of Plasmodium falciparum Dihydroorotate Dehydrogenase” (International Journal of Molecular Sciences, 2021)
Where two headings read alike, the source gives them in different places.

Assays:
[1] = Cytotoxicity assay, DLD-1 (Cell Counting Kit-8); format: cell-based; conditions: DLD-1 human colorectal adenocarcinoma cells
Method: (§1) Human dermal fibroblast cells (HDF, Zenbio, Inc., Durham, NC, USA) were cultured in Dulbecco’s Modified Eagle Medium/Nutrient Mixture F-12 medium (DMEM/F12, Gibco), human pancreatic carcinoma cells (PANC-1, DS Pharma Biomedical, Co., Ltd.) were cultured in DMEM (Gibco), and human colorectal adenocarcinoma cells (DLD-1, Taiho Pharmaceutical Company) were cultured in RPMI-1640 medium (FUJIFILM Wako Pure Chemicals). The culture mediums were supplemented with 10% (v/v) heat-inactivated fetal bovine serum (Gibco) and the cells were maintained at 37 °C under 5% CO2.
(§2) HDF, PANC-1, and DLD-1 were seeded at 2.5 × 10^4 cells/well on a 96-well plate and incubated at 37 °C under 5% CO2 overnight. The cells were then washed with PBS and the medium was replaced with 99 µL of fresh media. Then, 1 µL of the compounds or DMSO was added to the respective wells. As controls, wells containing 1% (v/v) DMSO in column 1 and wells containing only the culture medium in column 12 were used as the negative and positive controls, respectively. After 48 h of incubation, the cells were washed with PBS, and 99 µL of fresh media was replaced, followed by the addition of 10 µL of Cell Counting Kit-8 (Dojindo) to each well. After 3 h of incubation, the absorbance was measured at 450 nm using a SpectraMax®® Paradigm®® Multi-Mode microplate Reader. The calculation of cell viability in the test well was based on the absorbance of control wells according to the manufacturer’s protocol. The mean of quadruplet values was used to calculate the CC50 using GraphPad Prism 8.0 software.

[2] = Cytotoxicity assay, PANC-1 (Cell Counting Kit-8); format: cell-based; conditions: PANC-1 human pancreatic carcinoma cells
Method: as §1, §2

PfDHODH = target: T1, PfDHODH (Plasmodium falciparum, UniProt Q08210); assay: PfDHODH inhibition assay (DCIP end-point, 384-well); format: biochemical
T1 construct: encoding amino acid residues 158 to 569 fused to a His6-SUMO tag in its N-terminus; His6-SUMO (N, cleaved yes); made in house; host or cells: E. coli BL21 Star (DE3), pETSUMO/PfDHODH
Method: The screening of 40,400 compounds was conducted in 384-well plates by adapting the end-point assay reported before. First, 1 µL of 200 µM compound was transferred into 384-well plates using a Benchtop Multi-Pipetter EDR-384SR (Biotech Co., Ltd., Tokyo, Japan). […] Next, 38 µL of assay mix (100 mM HEPES-NaOH pH 7.5, 5% (v/v) glycerol, 150 mM NaCl, 0.05% (v/v) Triton X-100, 15 µM decylubiquinone (dUQ, Sigma), 120 µM 2,6-dichlorophenolindophenol (DCIP, Sigma), and 20 nM PfDHODH) were dispensed into all wells and mixed at 600 rpm for 1 min by a MixMate®® (Eppendorf). The reaction was started by the addition of 5 µL of 1.8 mM L-DHO (Sigma) as the substrate and mixed as described above for 20 s. The absorbance at 600 nm was recorded using a SpectraMax®® Paradigm®® Multi-Mode Microplate Reader (Molecular Devices) before (t0) and after 20 min (t20) incubation at room temperature. The readings at t0 were subtracted from t20, and PfDHODH inhibition was calculated as the inhibition relative to the negative and positive controls in a single-point assay. Hits were defined as compounds inhibiting more than 50% of PfDHODH activity at 4.5 µM. The quality of the screening system was evaluated by calculating statistical parameters: Z′-factor, S/N, S/B, SW, and CV, as previously reported. The IC50 values of the hit compounds were determined using the same assay system containing serial dilutions of each compound in triplicates (22.7, 6.8, 2.27, 0.68, 0.227, 0.068, 0.023, 0.007, 0.002, 0.0007 µM) using GraphPad Prism 8.0 software (GraphPad Software Inc., San Diego, CA, USA).

HsDHODH = target: T2, HsDHODH (Homo sapiens, UniProt Q02127); assay: HsDHODH counter-assay; format: biochemical; conditions: purified recombinant HsDHODH, tested at 4.5 µM; read-out: IC50 DHODH Hs
T2 construct: made in house
Method: Selected hit compounds from PfDHODH screening were tested for potential inhibition against HsDHODH at 4.5 µM. The HsDHODH used in this study was purified as previously reported. The HsDHODH assay was performed similarly to that for PfDHODH, but in an assay mix consisting of 50 mM Tris-HCl pH 8.0, 0.1% (v/v) Triton X-100, 2 mM potassium cyanide (KCN, Wako), 60 µM dUQ, and 120 µM DCIP, with the reaction started by the addition of 200 µM L-DHO (final concentration) in triplicate. For this assay, DMSO was used as a negative control and 10 µM of lapachol was used as a positive control (100% inhibition). The relative inhibition was calculated as described above.

[3] = recombinant tag-free PfDHODH, 20 min, serial dilutions 0.0007-22.7 µM, read-out: IC50 DHODH Pf

T2 sequence (Q02127 whole entry): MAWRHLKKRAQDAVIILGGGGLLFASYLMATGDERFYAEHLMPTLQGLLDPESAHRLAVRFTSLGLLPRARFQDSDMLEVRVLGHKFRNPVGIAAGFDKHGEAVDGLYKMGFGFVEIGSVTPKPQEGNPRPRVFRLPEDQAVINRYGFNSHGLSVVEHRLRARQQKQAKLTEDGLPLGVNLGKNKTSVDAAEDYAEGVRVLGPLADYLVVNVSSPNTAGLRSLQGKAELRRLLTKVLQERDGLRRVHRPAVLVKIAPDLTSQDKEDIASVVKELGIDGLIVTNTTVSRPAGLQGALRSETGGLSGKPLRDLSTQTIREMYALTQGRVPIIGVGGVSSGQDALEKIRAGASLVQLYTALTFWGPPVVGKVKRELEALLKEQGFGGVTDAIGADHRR
T1 sequence (Q08210 158-569): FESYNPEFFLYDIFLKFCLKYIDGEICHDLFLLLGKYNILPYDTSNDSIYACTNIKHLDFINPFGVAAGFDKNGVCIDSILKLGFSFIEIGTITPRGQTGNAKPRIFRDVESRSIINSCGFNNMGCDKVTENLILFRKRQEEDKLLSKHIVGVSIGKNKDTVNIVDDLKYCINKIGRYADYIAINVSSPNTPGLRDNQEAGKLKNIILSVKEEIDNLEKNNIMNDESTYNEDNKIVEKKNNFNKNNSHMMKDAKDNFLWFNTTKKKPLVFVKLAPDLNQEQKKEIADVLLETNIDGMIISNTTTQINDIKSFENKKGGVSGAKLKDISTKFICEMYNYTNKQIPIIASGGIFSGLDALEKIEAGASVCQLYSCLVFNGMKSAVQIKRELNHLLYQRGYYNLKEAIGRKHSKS

| Structure (SMILES) | EC50 at 48 h [1] [µM] | EC50 at 48 h [2] [µM] | IC50 (PfDHODH; [3]) [µM] | IC50 (HsDHODH) [µM] | IC50 (PfDHODH) [µM] | fold increase in the PfDHODH IC50 compared to 1 (PfDHODH) [fold] |
| --- | --- | --- | --- | --- | --- | --- |
| c1ccc(-c2ccc3c(c2)C2=NCCCN2S3)cc1 [Compound 36] | > 10 | > 10 | 1.51 ± 0.04 | > 4.5 |  |  |
| N=C1Sc2cc(-c3ccccc3-c3ccccc3)ccc2C2=NCCCN12 [Compound 27] | > 10 | > 10 | 3.3 ± 0.1 | > 4.5 |  |  |
| c1ccc(-c2ccc3c(c2)SN2CCCN=C32)cc1 [Compound 30] | > 10 | > 10 | 4.26 ± 0.12 | > 4.5 |  |  |
| N=C1Sc2cc(-c3ccc4c(c3)OCO4)ccc2C2=NCCCN12 [Compound 3] | > 10 | > 10 | 1.18 ± 0.04 | > 4.5 |  |  |
| CC(C)Oc1cccc(-c2ccc3c(c2)SC(=N)N2CCCN=C32)c1 [Compound 22] | > 10 | > 10 | 1.56 ± 0.05 | > 4.5 |  |  |
| N=C1Sc2cc(-c3ccc4ccccc4c3)ccc2C2=NCCCN12 [Compound 1] | > 10 | > 10 | 0.65 ± 0.05 | > 4.5 |  |  |
| N=C1Sc2cc(-c3cccc([N+](=O)[O-])c3)ccc2C2=NCCCN12 [Compound 21] | > 10 | > 10 | 3.68 ± 0.31 | > 4.5 |  |  |
| N=C1Sc2cc(-c3ccccc3)ccc2C2=NCCCN12 [Compound 12] | > 10 | > 10 | 0.68 ± 0.05 | > 4.5 |  |  |
| N#Cc1ccc(-c2ccc3c(c2)SC(=N)N2CCCN=C32)cc1 [Compound 14] | > 10 | > 10 | 3.89 ± 0.23 | > 4.5 |  |  |
| N=C1Sc2cc(-c3ccc(OC(F)(F)F)cc3)ccc2C2=NCCCN12 [Compound 18] | > 10 | > 10 | 1.43 ± 0.06 | > 4.5 |  |  |
| O=[N+]([O-])c1ccc(-c2ccc3c(c2)SN2CCCN=C32)cc1 [Compound 39] | > 10 | > 10 | 1.3 ± 0.04 | > 4.5 |  |  |
| c1ccc2c(-c3ccc4c(c3)SN3CCCN=C43)cccc2c1 [Compound 31] | > 10 | > 10 | 1.1 ± 0.08 | > 4.5 |  |  |
| N=C1Sc2cc(-c3ccc4c(C(=O)OC(F)(F)F)c[nH]c4c3)ccc2C2=NCCCN12 [Compound 6] | > 10 | > 10 | 0.7 ± 0.04 | > 4.5 |  |  |
| CSc1ccc(-c2ccc3c(c2)SC(=N)N2CCCN=C32)cc1 [Compound 17] | > 10 | > 10 | 0.96 ± 0.07 | > 4.5 |  |  |
| c1cc2c(cc1-c1ccc3c(c1)SN1CCCN=C31)OCO2 [Compound 32] | > 10 | > 10 | 1.29 ± 0.09 | > 4.5 |  |  |
| CCc1cccc(-c2ccc3c(c2)SC(=N)N2CCCN=C32)c1 [Compound 25] | > 10 | > 10 | 1.52 ± 0.08 | > 4.5 |  |  |
| N=C1Sc2cc(-c3ccc(C(F)(F)F)cc3)ccc2C2=NCCCN12 [Compound 15] | > 10 | > 10 | 2.31 ± 0.11 | > 4.5 |  |  |
| N=C1Sc2cc(-c3ccc4cnccc4c3)ccc2C2=NCCCN12 [Compound 5] | > 10 | > 10 | 0.96 ± 0.09 | > 4.5 |  |  |
| O=[N+]([O-])c1ccccc1-c1ccc2c(c1)SN1CCCN=C21 [Compound 43] | > 10 | > 10 | 1.15 ± 0.06 | > 4.5 |  |  |
| N=C1Sc2cc(-c3cc4ccccc4o3)ccc2C2=NCCCN12 [Compound 7] | > 10 | > 10 | 1.3 ± 0.05 | > 4.5 |  |  |
| N=C1Sc2cc(-c3ccc4c(c3)OCCO4)ccc2C2=NCCCN12 [Compound 4] | > 10 | > 10 | 0.97 ± 0.08 | > 4.5 |  |  |
| COC(=O)c1ccc(-c2ccc3c(c2)SC(=N)N2CCCN=C32)cc1 [Compound 13] | > 10 | > 10 | 1.22 ± 0.05 | > 4.5 |  |  |
| COc1ccccc1-c1ccc2c(c1)SN1CCCN=C21 [Compound 42] | > 10 | > 10 | 1.18 ± 0.05 | > 4.5 |  |  |
| N=C1Sc2cc(/C=C/c3ccccc3)ccc2C2=NCCCN12 [Compound 8] | > 10 | > 10 |  | > 4.5 | 1.07 ± 0.05 |  |
| N=C1Sc2cc(-c3ccc(C(=O)c4ccccc4)cc3)ccc2C2=NCCCN12 [Compound 19] | > 10 | > 10 | 1.07 ± 0.05 | > 4.5 |  |  |
| COC(=O)c1cccc(-c2ccc3c(c2)SN2CCCN=C32)c1 [Compound 40] | > 10 | > 10 | 1.43 ± 0.02 | > 4.5 |  |  |
| CC(C)(C)N=C1Sc2cc(-c3cc4ccccc4s3)ccc2C2=NCCCN12 [Compound 10] | > 10 | > 10 | 3.84 ± 0.09 | > 4.5 |  | 6 |
| COC(=O)c1ccc(-c2ccc3c(c2)SN2CCCN=C32)cc1 [Compound 37] | > 10 | > 10 | 1.15 ± 0.07 | > 4.5 |  |  |
